According to ChEMBL document CHEMBL3046894, “Synthesis and Herbicidal Activity of Pyrimidinyl Salicylic and Thiosalicylic Acids” (J Pestic Sci, 1996):
The source made the active and inactive calls. The rule behind the calls is not given here.

What was measured:
Assay type in all cases: functional, organism-based
Chenopodium album [1] = assay: Post-emergence herbicidal activity against Chenopodium album assessed as growth inhibition at 25 g a.i/10 a applied 11 days after germination as foliar spray
Chenopodium album [2] = assay: Pre-emergence herbicidal activity against Chenopodium album assessed as growth inhibition at 25 g a.i/10 a
Digitaria sanguinalis [3] = assay: Post-emergence herbicidal activity against Digitaria sanguinalis (hairy crabgrass) assessed as growth inhibition at 25 g a.i/10 a applied 11 days after germination as foliar spray
Persicaria nodosa [4] = assay: Pre-emergence herbicidal activity against Persicaria nodosa assessed as growth inhibition at 25 g a.i/10 a
Echinochloa crus-galli [5] = assay: Pre-emergence herbicidal activity against Echinochloa crus-galli (barnyard grass) assessed as growth inhibition at 25 g a.i/10 a
Digitaria sanguinalis [6] = assay: Pre-emergence herbicidal activity against Digitaria sanguinalis (hairy crabgrass) assessed as growth inhibition at 25 g a.i/10 a
Cyperus iria [7] = assay: Pre-emergence herbicidal activity against Cyperus iria assessed as growth inhibition at 25 g a.i/10 a
Echinochloa crus-galli [8] = assay: Post-emergence herbicidal activity against Echinochloa crus-galli (barnyard grass) assessed as growth inhibition at 25 g a.i/10 a applied 11 days after germination as foliar spray
Cyperus iria [9] = assay: Post-emergence herbicidal activity against Cyperus iria assessed as growth inhibition at 25 g a.i/10 a applied 11 days after germination as foliar spray
Amaranthus retroflexus [10] = assay: Post-emergence herbicidal activity against Amaranthus retroflexus assessed as growth inhibition at 25 g a.i/10 a applied 11 days after germination as foliar spray
Amaranthus retroflexus [11] = assay: Pre-emergence herbicidal activity against Amaranthus retroflexus assessed as growth inhibition at 25 g a.i/10 a
Persicaria nodosa [12] = assay: Post-emergence herbicidal activity against Persicaria nodosa assessed as growth inhibition at 25 g a.i/10 a applied 11 days after germination as foliar spray

Row | Compound | growth inhibition (GI) (Chenopodium album [1]) | growth inhibition (GI) (Chenopodium album [2]) | growth inhibition (GI) (Digitaria sanguinalis [3]) | growth inhibition (GI) (Persicaria nodosa [4]) | growth inhibition (GI) (Echinochloa crus-galli [5]) | growth inhibition (GI) (Digitaria sanguinalis [6]) | growth inhibition (GI) (Cyperus iria [7]) | growth inhibition (GI) (Echinochloa crus-galli [8]) | growth inhibition (GI) (Cyperus iria [9]) | growth inhibition (GI) (Amaranthus retroflexus [10]) | growth inhibition (GI) (Amaranthus retroflexus [11]) | growth inhibition (GI) (Persicaria nodosa [12])
1 | COc1cc(OC)nc(Oc2c(C)cccc2C(=O)O)n1 | inactive | Active | inactive | inactive | Active | inactive | Active | inactive | Active | Active | Active | Active
2 | COc1cc(OC)nc(Oc2cccc(OC(C)C)c2C(=O)O)n1 | Active | Active | Active | Active | Active | Active | Active | Active | Active | Active | Active | Active
3 | COc1cc(OC)nc(Oc2ccc(C)cc2C(=O)O)n1 | inactive | Active | inactive | inactive | inactive | inactive | Active | Active | inactive | Active | Active | Active
4 | COc1cc(OC)nc(Oc2cccc(-c3ccccc3)c2C(=O)O)n1 | Active | Active | Active | Active | Active | Active | Active | Active | Active | Active | Active | Active
5 | CCCc1cccc(Oc2nc(OC)cc(OC)n2)c1C(=O)O | Active | Active | Active | Active | Active | Active | Active | Active | Active | Active | Active | Active
6 | COc1cc(OC)nc(Oc2ccc(C(F)(F)F)cc2C(=O)O)n1 | inactive | inactive | inactive | inactive | inactive | inactive | inactive | inactive | inactive | Active | inactive | inactive
